Measured values: patent publication US20240336634A1, “AGONISTS OF TYRO3 AS PROTECTION AGAINST PODOCYTE INJURY IN KIDNEY GLOMERULAR DISEASE” (The Government of the United States of America as …, priority 2021, published 2024)

Assays:
[1] = target: T1, TYRO3 (Homo sapiens, UniProt Q06418); assay: TYRO3 phosphorylation in podocytes, western blot; format: cell-based; conditions: for TYRO3 phosphorylation: podocytes, 30 minutes
T1 construct: testing their effects on TYRO3, and AKT phosphorylation in podocytes; endogenous in cells
T1 sequence (Q06418 41-890): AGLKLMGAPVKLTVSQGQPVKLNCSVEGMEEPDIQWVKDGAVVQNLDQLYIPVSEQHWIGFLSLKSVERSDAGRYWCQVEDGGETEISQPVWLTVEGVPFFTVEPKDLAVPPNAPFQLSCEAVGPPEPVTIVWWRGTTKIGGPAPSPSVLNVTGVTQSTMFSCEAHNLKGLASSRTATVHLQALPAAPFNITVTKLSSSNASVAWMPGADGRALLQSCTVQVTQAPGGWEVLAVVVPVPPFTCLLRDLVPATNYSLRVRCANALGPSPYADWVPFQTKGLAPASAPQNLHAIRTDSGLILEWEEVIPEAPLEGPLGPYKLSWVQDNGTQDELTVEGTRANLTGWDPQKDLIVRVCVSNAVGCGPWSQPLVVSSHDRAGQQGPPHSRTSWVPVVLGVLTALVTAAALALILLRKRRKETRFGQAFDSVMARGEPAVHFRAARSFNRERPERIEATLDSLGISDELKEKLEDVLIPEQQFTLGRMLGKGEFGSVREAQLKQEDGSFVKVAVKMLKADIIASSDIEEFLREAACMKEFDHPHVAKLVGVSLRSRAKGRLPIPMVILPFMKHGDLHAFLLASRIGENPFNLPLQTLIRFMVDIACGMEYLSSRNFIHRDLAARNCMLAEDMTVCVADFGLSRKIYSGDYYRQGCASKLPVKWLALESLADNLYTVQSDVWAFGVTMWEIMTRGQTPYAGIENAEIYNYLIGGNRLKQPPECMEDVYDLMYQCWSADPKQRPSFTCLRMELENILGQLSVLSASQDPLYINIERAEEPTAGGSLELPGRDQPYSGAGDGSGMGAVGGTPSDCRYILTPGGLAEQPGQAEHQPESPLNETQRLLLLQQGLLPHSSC
Description: (§1) FIG. 2A-C show representative data illustrating screening of TYRO3 agonists by activation of TYRO3, AKT, and NK-κB target gene expression. Referring to FIG. 2A and FIG. 2B, podocytes were treated with control vehicle (C) or different TYRO3 agonists (compounds 1-10) for 30 minutes. Western blot analysis was performed for phospho- or total Tyro3 (FIG. 2A) and AKT (FIG. 2B). Referring to FIG. 2C, podocytes were treated with vehicle control (C), TNF-α (10 ng) alone (T), or together with different TYRO3 agonists (compounds 1-10) for 2 hours, and then q-PCR analysis was performed for NF-kB target gene expression (IL-6). N=3, *p<0.01 as compared to TNF-α alone.
FIG. 3A and FIG. 3B show representative data illustrating the time course and dose effects of C-10 on the phosphorylation of TYRO3, AKT, and NK-κB target gene expression. Referring to FIG. 3A, podocytes were treated with C-10 for 30 minutes at different doses (left) or at 100 nM for different time period (right). Referring to FIG. 3B, podocytes were treated with vehicle control TNF-α (10 ng) alone or together with different concentrations of C-10 for 2 hours, and then q-PCR analysis was performed for NF-kB target gene expression (IL-6 and CCL2). N=3, *p<0.01 and **p<0.001 as compared to TNF-α alone.
(§2) Referring to FIG. 4B, HEK293T cells were used to confirm the overexpression of Tyro3 and Axl (C: control; OV:overexpression). Referring to FIG. 4C, cells from above transfection were stimulated with C-10 at 100 nM for 30 minutes. Western blot analysis was performed for phospho- and total AKT and GAPDH was used as a control of protein loading. The representative blots of three independent experiments are shown.
(§3) Next, their biological activity was screened by testing their effects on TYRO3, and AKT phosphorylation in podocytes. […] To test the specificity, podocytes were treated with different doses of C-10 for 30 minutes, and then western blot analysis was performed with anti-phospho-Tyro3 antibody, which also recognizes phosphorylation of Mer and Axl. Since three TAM receptors have different molecular weights, they can be distinguished in the SDS gel. […] In addition, TYRO3 and Axl were overexpressed in […] (FIG. 4B), and the effects of C-10 in these cells was determined.

[2] = tested on: NF-κB target gene expression (IL-6); assay: NF-κB target gene expression in TNF-α treated podocytes, q-PCR; format: cell-based; conditions: TNF-α (10 ng), 2 hours, IL-6 q-PCR
Description: as §1
(§4) FIG. 3A and FIG. 3B show representative data illustrating the time course and dose effects of C-10 on the phosphorylation of TYRO3, AKT, and NK-κB target gene expression. Referring to FIG. 3A, podocytes were treated with C-10 for 30 minutes at different doses (left) or at 100 nM for different time period (right). […]
(§5) Next, their biological activity was screened by testing their effects on TYRO3, and AKT phosphorylation in podocytes. […] In addition, TYRO3 and Axl were overexpressed in podocytes (FIG. 4B), and the effects of C-10 in these cells was determined.

[3] = tested on: AKT; assay: AKT phosphorylation in podocytes, western blot; format: cell-based; conditions: 30 minutes, screening (FIG. 2)
Description: as §1, §4, §5

[4] = tested on: diabetic mice (db/db); assay: Albuminuria and glomerular injury in diabetic db/db mice; format: in vivo; conditions: 2.5 mg/kg from age 10 weeks, 8 weeks
Description: FIG. 6A-C show representative data illustrating that treatment with C-10 improves albuminuria and glomerular injury in diabetic mice. Db/db mice were treated with C-10 at 2.5 mg/kg at age of 10 week, the mice were sacrificed after 8 weeks of treatment.
The effect of C-10 on albuminuria and glomerular injury in diabetic mice was also evaluated. 10 week old db/db mice were treated with C-10 at 2.5 mg/kg. Mice were sacrificed at week 8. As shown in FIGS. 6A-C, administration of C-10 improved both albuminuria and glomerular injury relative to control.

[5] = tested on: mice with Adriamycin-induced nephropathy (ADRN); assay: Adriamycin-induced nephropathy (ADRN) in mice; format: in vivo
Description: FIG. 5A-C show representative data illustrating that C-10 treatment attenuates adriamycin-induced nephropathy (ADRN) in mice. 10-week old male Balb/c mice were injected with adriamycin (8 mg/kg) and treated with C-10 at 20 mg/kg from day 3 post-injection. All mice were sacrificed at day 28 post-injection.
The effect of C-10 was determined in vivo in mice with Adriamycin-induced nephropathy (ADRN). ADRN was induced in the Balb/c mice by injection of adriamycin at a dose of 8 mg/kg at the age of 10 weeks. The mice were fed with either C-10 at a dose of 20 mg/kg body weight or vehicle by daily gavage started on day 3 after they received an injection of Adriamycin, and ending in 4 weeks when the mice were sacrificed.

[6] = target: T2, Axl (Homo sapiens, UniProt P30530); assay: Axl phosphorylation in podocytes, western blot with anti-phospho-TAM receptor antibody; format: cell-based; conditions: different doses, 30 minutes (FIG. 4A)
T2 construct: endogenous in cells; host or cells: human podocytes
T2 sequence (P30530 26-894): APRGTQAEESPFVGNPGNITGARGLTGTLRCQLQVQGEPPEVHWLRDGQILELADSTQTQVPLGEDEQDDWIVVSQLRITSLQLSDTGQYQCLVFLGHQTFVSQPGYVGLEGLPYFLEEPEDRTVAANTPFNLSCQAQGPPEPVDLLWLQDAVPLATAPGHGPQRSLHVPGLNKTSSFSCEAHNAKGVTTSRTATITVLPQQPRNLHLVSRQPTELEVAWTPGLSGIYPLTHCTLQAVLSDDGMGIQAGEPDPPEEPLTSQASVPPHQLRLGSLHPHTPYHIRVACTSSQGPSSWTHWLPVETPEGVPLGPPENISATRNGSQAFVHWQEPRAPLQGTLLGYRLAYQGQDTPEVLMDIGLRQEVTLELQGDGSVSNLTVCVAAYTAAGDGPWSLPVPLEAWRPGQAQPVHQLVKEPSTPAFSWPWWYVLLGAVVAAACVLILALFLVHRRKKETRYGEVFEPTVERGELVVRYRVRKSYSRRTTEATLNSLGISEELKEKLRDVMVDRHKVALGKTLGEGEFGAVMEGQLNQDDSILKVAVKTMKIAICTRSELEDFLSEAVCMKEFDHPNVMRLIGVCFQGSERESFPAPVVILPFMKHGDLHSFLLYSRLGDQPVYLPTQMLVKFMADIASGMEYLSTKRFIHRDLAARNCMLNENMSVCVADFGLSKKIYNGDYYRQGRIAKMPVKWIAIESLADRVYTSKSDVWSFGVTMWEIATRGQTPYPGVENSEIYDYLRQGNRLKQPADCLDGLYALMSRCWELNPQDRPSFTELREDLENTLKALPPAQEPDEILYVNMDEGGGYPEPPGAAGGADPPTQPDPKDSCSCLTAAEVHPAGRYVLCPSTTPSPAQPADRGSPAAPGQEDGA
Description: as §2, §3

[7] = tested on: TYRO3 overexpressing cells; assay: AKT phosphorylation in TYRO3 overexpressing cells; format: cell-based; conditions: 100 nM, 30 minutes (FIG. 4C)
Description: as §2, §3

[8] = target: T3, Mer (Homo sapiens, UniProt Q12866); assay: Mer phosphorylation in podocytes, western blot with anti-phospho-TAM receptor antibody; format: cell-based; conditions: different doses, 30 minutes (FIG. 4A)
T3 construct: endogenous in cells; host or cells: human podocytes
T3 sequence (Q12866 21-999): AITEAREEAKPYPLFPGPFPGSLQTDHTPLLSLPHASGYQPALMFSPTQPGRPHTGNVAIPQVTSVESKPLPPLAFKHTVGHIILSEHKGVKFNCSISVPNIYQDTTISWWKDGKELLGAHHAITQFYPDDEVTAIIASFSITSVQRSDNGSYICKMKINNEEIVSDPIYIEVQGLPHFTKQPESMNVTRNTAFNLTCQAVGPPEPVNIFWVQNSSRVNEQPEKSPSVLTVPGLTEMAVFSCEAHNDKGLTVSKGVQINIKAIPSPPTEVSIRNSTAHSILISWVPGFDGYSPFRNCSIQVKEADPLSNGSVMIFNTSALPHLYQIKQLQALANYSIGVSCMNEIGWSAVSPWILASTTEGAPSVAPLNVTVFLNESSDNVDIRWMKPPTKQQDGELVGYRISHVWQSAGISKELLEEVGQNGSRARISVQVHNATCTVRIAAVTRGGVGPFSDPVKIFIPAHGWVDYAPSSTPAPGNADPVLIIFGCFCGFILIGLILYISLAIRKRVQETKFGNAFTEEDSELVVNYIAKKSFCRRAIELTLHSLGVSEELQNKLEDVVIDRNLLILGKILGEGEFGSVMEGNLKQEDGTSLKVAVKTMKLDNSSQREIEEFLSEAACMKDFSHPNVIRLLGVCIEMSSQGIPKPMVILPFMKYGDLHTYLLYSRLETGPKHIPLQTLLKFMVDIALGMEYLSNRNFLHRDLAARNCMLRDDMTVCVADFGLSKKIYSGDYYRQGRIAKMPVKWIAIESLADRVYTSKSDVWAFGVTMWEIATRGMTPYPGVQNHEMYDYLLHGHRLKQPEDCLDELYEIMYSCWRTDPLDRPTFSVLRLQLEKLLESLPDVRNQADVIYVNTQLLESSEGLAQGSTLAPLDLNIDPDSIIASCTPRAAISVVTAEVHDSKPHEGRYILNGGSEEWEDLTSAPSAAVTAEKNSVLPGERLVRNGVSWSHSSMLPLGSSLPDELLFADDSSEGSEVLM
Description: as §2, §3

[9] = ADRN Balb/c mice, 20 mg/kg daily gavage from day 3, 4 weeks

Structure (SMILES)	TYRO3 phosphorylation ([1]; screening (FIG. 2A))	NF-κB target gene expression [2]	AKT phosphorylation [3]	specificity as agonist for TYRO3 among TAM receptors ([1]; from phosphorylation of Tyro3, Axl and Mer)	TYRO3 phosphorylation ([1]; different doses, anti-phospho-Tyro3 antibody (FIG. 4A))	effect as TYRO3 agonist compared between hits ([1]; screening in podocytes)	albuminuria [4]	glomerular injury [4]	toxicity during the treatment period ([5]; ADRN Balb/c mice, 20 mg/kg daily gavage)	albuminuria [5, 9]	glomerular injury [5, 9]	adriamycin-induced nephropathy (ADRN) ([5]; Balb/c mice, 20 mg/kg from day 3, sacrificed day 28)	phosphorylation of Axl [6]	AKT phosphorylation in TYRO3 overexpressing cells [7]	phosphorylation of Mer [8]
COc1cc(-c2nc(O)c(C)s2)ccc1Br [C-8, 2-(4-Bromo-3-Methoxyphenyl)-5-Methylthiazol-4-ol]	induced significantly	suppressed	induced significantly	–	–	–	–	–	–	–	–	–	–	–	–
Cc1sc(-c2ccc(B(O)O)s2)nc1O [C-10, (5-(4-Hydroxy-5-Methylthiazol-2-yl)Thiophen-2-yl)Boronic Acid]	induced significantly	suppressed	induced significantly	quite specific agonist for TYRO3	induced significantly	appears better than C-8	improved	improved	No obvious toxicity	significantly reduced	significantly reduced	attenuates	did not affect	induced	slightly reduced
